This note sets out measurements from ChEMBL document CHEMBL3352762 (J Med Chem, 2014).

Data set [1] has as its target T1, Urotensin-2 receptor (Homo sapiens, UniProt Q9UKP6).
T1 sequence (Q9UKP6 whole entry): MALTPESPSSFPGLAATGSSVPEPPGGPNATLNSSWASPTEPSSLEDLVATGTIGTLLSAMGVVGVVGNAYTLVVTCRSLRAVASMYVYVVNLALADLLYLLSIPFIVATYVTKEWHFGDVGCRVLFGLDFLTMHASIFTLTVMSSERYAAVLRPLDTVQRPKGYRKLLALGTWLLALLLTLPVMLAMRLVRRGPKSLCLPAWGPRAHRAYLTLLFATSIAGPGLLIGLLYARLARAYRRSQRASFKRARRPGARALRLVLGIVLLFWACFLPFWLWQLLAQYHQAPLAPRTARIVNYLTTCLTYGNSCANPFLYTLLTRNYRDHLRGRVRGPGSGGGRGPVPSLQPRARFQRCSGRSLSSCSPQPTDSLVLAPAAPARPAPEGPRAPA
Kind of data set: Displacement of [125I]urotensin-2 from human recombinant UT receptor expressed in CHO-K1 cells by scintillation counting method. It counts as cell-based. (In a radioligand displacement assay an active substance lowers the binding of a labelled ligand.)

Data set [2] deals with T2, Urotensin-2 receptor (Rattus norvegicus, UniProt P49684).
T2 sequence (P49684 whole entry): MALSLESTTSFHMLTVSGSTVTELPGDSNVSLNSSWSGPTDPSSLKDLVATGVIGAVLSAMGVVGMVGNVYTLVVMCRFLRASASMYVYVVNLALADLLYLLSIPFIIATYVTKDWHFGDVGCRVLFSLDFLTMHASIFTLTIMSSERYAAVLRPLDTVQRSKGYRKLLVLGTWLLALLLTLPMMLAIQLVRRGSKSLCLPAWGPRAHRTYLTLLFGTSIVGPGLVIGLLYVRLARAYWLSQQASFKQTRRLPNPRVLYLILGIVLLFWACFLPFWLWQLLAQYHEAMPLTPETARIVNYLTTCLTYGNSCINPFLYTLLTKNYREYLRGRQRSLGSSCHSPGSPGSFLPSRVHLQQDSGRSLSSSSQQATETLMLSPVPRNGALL
Kind of data set: Agonist activity at UT receptor in rat aorta assessed as contraction. It counts as tissue-based.

In data set [3] the target is T3, Urotensin-2 receptor (Rattus norvegicus) (UniProt P49684).
T3 sequence (whole entry): T2 sequence (P49684 whole entry)
Put plainly: Agonist activity at UT receptor in rat aorta assessed as contraction relative to urotensin-2. Format: tissue-based.

Data set [4] in a line: Stability in 25% fetal calf serum assessed as parent compound remaining at 80 uM at 37 degC after 16 hrs by RP-HPLC-UV based detection assay. Format: ADME, Bos taurus. To be noted: cattle, read-out: Stability.
A short description of data set [5]: Stability in 25% fetal calf serum assessed as parent compound remaining at 80 uM at 37 degC after 36 hrs by RP-HPLC-UV based detection assay. Format: ADME, Bos taurus. Particulars: cattle, read-out: Stability.

Peptide text beside a SMILES is read from it. Where only a bound is given, the exact number is not on record here.

For orientation: Ki means a measure of affinity in units of concentration, obtained from inhibition or displacement. In general, EC50 refers to the concentration giving half of the maximal effect. As a reminder, the Emax is the size of the effect at its maximum, as opposed to the concentration needed. For the compound `CC(C)[C@H](NC(=O)[C@@H]1CSSC(C)(C)[C@H](NC(=O)[C@@H](N)CC(=O)O)C(=O)N[C@@H](Cc2ccccc2)C(=O)N[C@@H](Cc2c[nH]c3ccccc23)C(=O)N[C@@H](CCCCN)C(=O)N[C@@H](Cc2ccc(Cl)cc2)C(=O)N1)C(=O)O` (HELM PEPTIDE1{D.[Pen].F.W.K.[O=C([C@H](Cc1ccc(Cl)cc1)N[*:1])[*:2]].C.V}$PEPTIDE1,PEPTIDE1,2:R3-7:R3$$$V2.0), at Urotensin-2 receptor [1], the Ki is 1.23 nM. For the same compound, on Urotensin-2 receptor [2], the 50% effective concentration (EC50) is 0.813 nM. Further, the maximal response (Emax) in data set [3] is 85%.

Regarding `CC(C)[C@H](NC(=O)[C@@H]1CSSC(C)(C)[C@H](NC(=O)[C@@H](N)CC(=O)O)C(=O)N[C@@H](Cc2ccccc2)C(=O)N[C@H](Cc2c[nH]c3ccccc23)C(=O)N[C@@H](CCCN)C(=O)N[C@@H](Cc2nc3ccccc3s2)C(=O)N1)C(=O)O`, the inhibition constant Ki on Urotensin-2 receptor [1] was 12.9 nM. In addition, the EC50 on Urotensin-2 receptor [2] was 33.9 nM. Further, the Emax in data set [3] was 57%.

On to `CC(C)[C@H](NC(=O)[C@@H]1CSSC(C)(C)[C@H](NC(=O)[C@@H](N)CC(=O)O)C(=O)N[C@@H](Cc2ccccc2)C(=O)N[C@H](Cc2c[nH]c3ccccc23)C(=O)N[C@@H](CCCN)C(=O)N[C@@H](Cc2ccc3ccccc3c2)C(=O)N1)C(=O)O`, for which, on Urotensin-2 receptor [1], the Ki is 0.724 nM. In addition, the EC50 on Urotensin-2 receptor [2] is 3.8 nM. In data set [3], the Emax turned out to be 13%.

Take `CC(C)[C@H](NC(=O)[C@@H]1CSSC(C)(C)[C@H](NC(=O)[C@@H](N)CC(=O)O)C(=O)N[C@@H](Cc2ccccc2)C(=O)N[C@@H](Cc2c[nH]c3ccccc23)C(=O)N[C@@H](CCCCN)C(=O)N[C@@H](Cc2nc3ccccc3s2)C(=O)N1)C(=O)O` (HELM PEPTIDE1{D.[Pen].F.W.K.[O=C([C@H](Cc1nc2ccccc2s1)N[*:1])[*:2]].C.V}$PEPTIDE1,PEPTIDE1,2:R3-7:R3$$$V2.0): the Ki on Urotensin-2 receptor [1] is 1.74 nM. In addition, on Urotensin-2 receptor [2], the EC50 was 0.0195 nM. Also, in data set [3], the Emax amounted to 89%.

`CC(C)[C@H](NC(=O)[C@@H]1CSSC(C)(C)[C@H](NC(=O)[C@@H](N)CC(=O)O)C(=O)N[C@@H](Cc2ccccc2)C(=O)N[C@H](Cc2c[nH]c3ccccc23)C(=O)N[C@@H](CCCN)C(=O)N[C@@H](Cc2ccc(Cl)cc2)C(=O)N1)C(=O)O`: the Ki at Urotensin-2 receptor [1] is 1.05 nM. Also, on Urotensin-2 receptor [2], the EC50 is 2.69 nM. In data set [3], the Emax worked out at 13%.

Take `CC(C)[C@H](NC(=O)[C@@H]1CSSC(C)(C)[C@H](NC(=O)[C@@H](N)CC(=O)O)C(=O)N[C@@H](Cc2ccccc2)C(=O)N[C@H](Cc2c[nH]c3ccccc23)C(=O)N[C@@H](CCCN)C(=O)N[C@@H](Cc2ccc(Cl)c(Cl)c2)C(=O)N1)C(=O)O`: the Ki at Urotensin-2 receptor [1] was 2.24 nM. Moreover, the EC50 at Urotensin-2 receptor [2] is 12.9 nM. The Emax in data set [3] was 26%.

`CC(C)[C@H](NC(=O)[C@@H]1CSSC(C)(C)[C@H](NC(=O)[C@@H](N)CC(=O)O)C(=O)N[C@@H](Cc2ccccc2)C(=O)N[C@@H](Cc2c[nH]c3ccccc23)C(=O)N[C@@H](CCCCN)C(=O)N[C@@H](Cc2ccc(C#N)cc2)C(=O)N1)C(=O)O` (HELM PEPTIDE1{D.[Pen].F.W.K.[N#Cc1ccc(C[C@H](N[*:1])C(=O)[*:2])cc1].C.V}$PEPTIDE1,PEPTIDE1,2:R3-7:R3$$$V2.0): at Urotensin-2 receptor [1], the Ki is 1.82 nM. For the same compound, the concentration for a half-maximal effect (EC50) at Urotensin-2 receptor [2] was 1.07 nM. Besides, the Emax in data set [3] worked out at 79%.

As for `CC(C)[C@H](NC(=O)[C@@H]1CSSC(C)(C)[C@H](NC(=O)[C@@H](N)CC(=O)O)C(=O)N[C@@H](Cc2ccccc2)C(=O)N[C@@H](Cc2c[nH]c3ccccc23)C(=O)N[C@@H](CCCCN)C(=O)N[C@@H](Cc2ccc(Cl)c(Cl)c2)C(=O)N1)C(=O)O` (HELM PEPTIDE1{D.[Pen].F.W.K.[O=C([C@H](Cc1ccc(Cl)c(Cl)c1)N[*:1])[*:2]].C.V}$PEPTIDE1,PEPTIDE1,2:R3-7:R3$$$V2.0), the Ki on Urotensin-2 receptor [1] is 0.776 nM. Further, the EC50 at Urotensin-2 receptor [2] was 0.0126 nM. In data set [3], the Emax amounted to 102%. For the same compound, in data set [4], the remaining at 16 h, 80 µM was over 70%. Also, in data set [5], the remaining at 36 h, 80 µM is over 50%.

Turning to `CC(C)[C@H](NC(=O)[C@@H]1CSSC(C)(C)[C@H](NC(=O)[C@@H](N)CC(=O)O)C(=O)N[C@@H](Cc2ccccc2)C(=O)N[C@H](Cc2c[nH]c3ccccc23)C(=O)N[C@@H](CCCN)C(=O)N[C@@H](Cc2ccc(O)cc2)C(=O)N1)C(=O)O` [URANTIDE] (HELM PEPTIDE1{D.[Pen].F.[dW].[Orn].Y.C.V}$PEPTIDE1,PEPTIDE1,2:R3-7:R3$$$V2.0), the remaining at 36 h, 80 µM in data set [5] is over 50%.

As to `CC(C)[C@H](NC(=O)[C@@H]1CSSC(C)(C)[C@H](NC(=O)[C@@H](N)CC(=O)O)C(=O)N[C@@H](Cc2ccccc2)C(=O)N[C@@H](Cc2c[nH]c3ccccc23)C(=O)N[C@@H](CCCCN)C(=O)N[C@@H](Cc2ccc3ccccc3c2)C(=O)N1)C(=O)O` (HELM PEPTIDE1{D.[Pen].F.W.K.[O=C([C@H](Cc1ccc2ccccc2c1)N[*:1])[*:2]].C.V}$PEPTIDE1,PEPTIDE1,2:R3-7:R3$$$V2.0), at Urotensin-2 receptor [1], the Ki was 2 nM. Further, the EC50 at Urotensin-2 receptor [2] was 0.724 nM. Besides, the Emax in data set [3] was 85%.

On to `CC(C)[C@H](NC(=O)[C@@H]1CSSC(C)(C)[C@H](NC(=O)[C@@H](N)CC(=O)O)C(=O)N[C@@H](Cc2ccccc2)C(=O)N[C@H](Cc2c[nH]c3ccccc23)C(=O)N[C@@H](CCCN)C(=O)N[C@@H](Cc2cccc3ccccc23)C(=O)N1)C(=O)O`, for which, on Urotensin-2 receptor [1], the inhibition constant (Ki) was 6.46 nM. Moreover, the EC50 at Urotensin-2 receptor [2] is 18.2 nM. In addition, the maximal response (Emax) in data set [3] is 37%.

As for `CC(C)[C@H](NC(=O)[C@@H]1CSSC(C)(C)[C@H](NC(=O)[C@@H](N)CC(=O)O)C(=O)N[C@@H](Cc2ccccc2)C(=O)N[C@@H](Cc2c[nH]c3ccccc23)C(=O)N[C@@H](CCCCN)C(=O)N[C@@H](Cc2ccc(O)cc2)C(=O)N1)C(=O)O` (HELM PEPTIDE1{D.[Pen].F.W.K.Y.C.V}$PEPTIDE1,PEPTIDE1,2:R3-7:R3$$$V2.0), the Ki at Urotensin-2 receptor [1] was 0.2 nM. Moreover, on Urotensin-2 receptor [2], the EC50 was 0.398 nM. In data set [3], the Emax was found to be 95%. The remaining at 16 h, 80 µM in data set [4] was 65%. The remaining at 36 h, 80 µM in data set [5] is 45%.

Turning to `CC(C)[C@H](NC(=O)[C@@H]1CSSC[C@H](NC(=O)[C@@H](N)CC(=O)O)C(=O)N[C@@H](Cc2ccccc2)C(=O)N[C@@H](Cc2c[nH]c3ccccc23)C(=O)N[C@@H](CCCCN)C(=O)N[C@@H](Cc2ccc(O)cc2)C(=O)N1)C(=O)O` (HELM PEPTIDE1{D.C.F.W.K.Y.C.V}$PEPTIDE1,PEPTIDE1,2:R3-7:R3$$$V2.0), the Ki on Urotensin-2 receptor [1] is 0.251 nM. The concentration giving a half-maximal response (EC50) at Urotensin-2 receptor [2] was 3.63 nM. Besides, the Emax in data set [3] is 100%. Besides, in data set [4], the remaining at 16 h, 80 µM was under 50%.

Regarding `CC(C)[C@H](NC(=O)[C@@H]1CSSC(C)(C)[C@H](NC(=O)[C@@H](N)CC(=O)O)C(=O)N[C@@H](Cc2ccccc2)C(=O)N[C@@H](Cc2c[nH]c3ccccc23)C(=O)N[C@@H](CCCCN)C(=O)N[C@@H](Cc2cccc3ccccc23)C(=O)N1)C(=O)O` (HELM PEPTIDE1{D.[Pen].F.W.K.[O=C([C@H](Cc1cccc2ccccc12)N[*:1])[*:2]].C.V}$PEPTIDE1,PEPTIDE1,2:R3-7:R3$$$V2.0), at Urotensin-2 receptor [1], the Ki is 0.398 nM. Moreover, the EC50 on Urotensin-2 receptor [2] was 5.01 nM. Also, the Emax in data set [3] worked out at 86%.

For `CC(C)[C@H](NC(=O)[C@@H]1CSSC(C)(C)[C@H](NC(=O)[C@@H](N)CC(=O)O)C(=O)N[C@@H](Cc2ccccc2)C(=O)N[C@@H](Cc2c[nH]c3ccccc23)C(=O)N[C@@H](CCCCN)C(=O)N[C@@H](Cc2ccc([N+](=O)[O-])cc2)C(=O)N1)C(=O)O` (HELM PEPTIDE1{D.[Pen].F.W.K.[O=C([C@H](Cc1ccc([N+](=O)[O-])cc1)N[*:1])[*:2]].C.V}$PEPTIDE1,PEPTIDE1,2:R3-7:R3$$$V2.0), the Ki on Urotensin-2 receptor [1] was 1.78 nM. The EC50 at Urotensin-2 receptor [2] was 0.631 nM. Besides, the Emax in data set [3] worked out at 95%.

Turning to `CC(C)[C@H](NC(=O)[C@@H]1CSSC[C@H](NC(=O)[C@H](CC(=O)O)NC(=O)[C@@H]2CCCN2C(=O)[C@@H](NC(=O)[C@@H](N)CCC(=O)O)[C@@H](C)O)C(=O)N[C@@H](Cc2ccccc2)C(=O)N[C@@H](Cc2c[nH]c3ccccc23)C(=O)N[C@@H](CCCCN)C(=O)N[C@@H](Cc2ccc(O)cc2)C(=O)N1)C(=O)O` [UROTENSIN-II], the EC50 on Urotensin-2 receptor [2] was 3.16 nM. For the same compound, in data set [3], the Emax came to 100%.
